Test system: 354836-022-R-J1-PDC multicell spheroid viability
Assay: Anticancer human tumor 354836-022-R-J1-PDC patient-derived head and neck squamous cell carcinoma cell line growth inhibition [PI3K]
Conditions: for viability, T/C: stronger effect = lower value
Method in brief: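 Stroma-containing spheroids: tumor line, pooled-donor HUVEC, hMSC. Treatments: targeted agents with PI3K inhibitors. Dosing: clinically relevant, half-log spacing, 10 microM ceiling without known Cmax. Read-out: cell viability.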

[1] = curve of first compound, second compound 0.0316 µM
[2] = curve of first compound, second compound 0.1 µM
[3] = curve of first compound, second compound 0.316 µM
[4] = curve of first compound, second compound 1 µM
[5] = second compound 0.0316 µM, first compound 0.0316 µM
[6] = second compound 0.0316 µM, first compound 0.1 µM
[7] = second compound 0.0316 µM, first compound 0.316 µM
[8] = second compound 0.0316 µM, first compound 1 µM
[9] = second compound 0.0316 µM, first compound 3.16 µM
[10] = second compound 0.0316 µM, first compound 10 µM
[11] = second compound 0.1 µM, first compound 0.0316 µM
[12] = second compound 0.1 µM, first compound 0.1 µM
[13] = second compound 0.1 µM, first compound 0.316 µM
[14] = second compound 0.1 µM, first compound 1 µM
[15] = second compound 0.1 µM, first compound 3.16 µM
[16] = second compound 0.1 µM, first compound 10 µM
[17] = second compound 0.316 µM, first compound 0.0316 µM
[18] = second compound 0.316 µM, first compound 0.1 µM
[19] = second compound 0.316 µM, first compound 0.316 µM
[20] = second compound 0.316 µM, first compound 1 µM
[21] = second compound 0.316 µM, first compound 3.16 µM
[22] = second compound 0.316 µM, first compound 10 µM
[23] = second compound 1 µM, first compound 0.0316 µM
[24] = second compound 1 µM, first compound 0.1 µM
[25] = second compound 1 µM, first compound 0.316 µM
[26] = second compound 1 µM, first compound 1 µM
[27] = second compound 1 µM, first compound 3.16 µM
[28] = second compound 1 µM, first compound 10 µM
[29] = curve of first compound, second compound 0.00316 µM
[30] = curve of first compound, second compound 0.01 µM
[31] = second compound 0.00316 µM, first compound 0.0316 µM
[32] = second compound 0.00316 µM, first compound 0.1 µM
[33] = second compound 0.01 µM, first compound 0.0316 µM
[34] = second compound 0.01 µM, first compound 0.1 µM
[35] = second compound 0.00316 µM, first compound 0.316 µM
[36] = second compound 0.00316 µM, first compound 1 µM
[37] = second compound 0.00316 µM, first compound 3.16 µM
[38] = second compound 0.00316 µM, first compound 10 µM
[39] = second compound 0.01 µM, first compound 0.316 µM
[40] = second compound 0.01 µM, first compound 1 µM
[41] = second compound 0.01 µM, first compound 3.16 µM
[42] = second compound 0.01 µM, first compound 10 µM
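Also: spheroids exposed to agents for seven days before the viability read.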

CCCS(=O)(=O)Nc1ccc(F)c(C(=O)c2c[nH]c3ncc(-c4ccc(Cl)cc4)cc23)c1F + CC(Nc1ncnc2nc[nH]c12)c1cc2cccc(Cl)c2c(=O)n1-c1ccccc1
IC50 [1]: 5.95 µM
IC50 [2]: 5.79 µM
IC50 [3]: 6.71 µM
IC50 [4]: 5.5 µM
IC50 (curve of first compound, second compound 3.16 µM): 6.29 µM
IC50 (curve of first compound, second compound 10 µM): 5.98 µM
viability, T/C [5]: 94.8%
viability, T/C [6]: 108%
viability, T/C [7]: 98.4%
viability, T/C [8]: 107%
viability, T/C [9]: 88.8%
viability, T/C [10]: 17.8%
viability, T/C [11]: 99.8%
viability, T/C [12]: 99.8%
viability, T/C [13]: 109%
viability, T/C [14]: 105%
viability, T/C [15]: 83.8%
viability, T/C [16]: 19.7%
viability, T/C [17]: 98%
viability, T/C [18]: 106%
viability, T/C [19]: 125%
viability, T/C [20]: 104%
viability, T/C [21]: 110%
viability, T/C [22]: 18.9%
viability, T/C [23]: 103%
viability, T/C [24]: 93.9%
viability, T/C [25]: 111%
viability, T/C [26]: 94.5%
viability, T/C [27]: 81.1%
viability, T/C [28]: 16.6%
viability, T/C (second compound 3.16 µM, first compound 0.0316 µM): 114%
viability, T/C (second compound 3.16 µM, first compound 0.1 µM): 111%
viability, T/C (second compound 3.16 µM, first compound 0.316 µM): 105%
viability, T/C (second compound 3.16 µM, first compound 1 µM): 106%
viability, T/C (second compound 3.16 µM, first compound 3.16 µM): 92.9%
viability, T/C (second compound 3.16 µM, first compound 10 µM): 21.1%
viability, T/C (second compound 10 µM, first compound 0.0316 µM): 89.7%
viability, T/C (second compound 10 µM, first compound 0.1 µM): 96%
viability, T/C (second compound 10 µM, first compound 0.316 µM): 94.2%
viability, T/C (second compound 10 µM, first compound 1 µM): 88.7%
viability, T/C (second compound 10 µM, first compound 3.16 µM): 92.6%
viability, T/C (second compound 10 µM, first compound 10 µM): 16%

CC(C)NCC(C(=O)N1CCN(c2ncnc3c2C(C)CC3O)CC1)c1ccc(Cl)cc1 (stereo not given)
viability, T/C (compound 0.0316 µM): 96.5% [middle of 4 runs]
viability, T/C (compound 0.1 µM): 71% [middle of 4 runs]
viability, T/C (compound 0.316 µM): 54.1% [middle of 4 runs]
viability, T/C (compound 1 µM): 24.7% [middle of 4 runs]
viability, T/C (compound 3.16 µM): 18% [middle of 4 runs]
viability, T/C (compound 10 µM): 14.2% [middle of 4 runs]
IC50 (curve of compound): 319 nM [middle of 4 runs]

CC(=O)c1c(C)c2cnc(Nc3ccc(N4CCNCC4)cn3)nc2n(C2CCCC2)c1=O + CC(Nc1ccc2c(c1)OCCn1cc(N3C(=O)OCC3C(F)F)nc1-2)C(N)=O
IC50 [29]: > 0.1 µM
IC50 [30]: > 0.1 µM
IC50 [1]: > 0.1 µM
IC50 [2]: > 0.1 µM
IC50 [3]: > 0.1 µM
IC50 [4]: > 0.1 µM
viability, T/C (second compound 0.00316 µM, first compound 0.000316 µM): 95.6%
viability, T/C (second compound 0.00316 µM, first compound 0.001 µM): 98%
viability, T/C (second compound 0.00316 µM, first compound 0.00316 µM): 109%
viability, T/C (second compound 0.00316 µM, first compound 0.01 µM): 82.5%
viability, T/C [31]: 102%
viability, T/C [32]: 98.7%
viability, T/C (second compound 0.01 µM, first compound 0.000316 µM): 99%
viability, T/C (second compound 0.01 µM, first compound 0.001 µM): 94.3%
viability, T/C (second compound 0.01 µM, first compound 0.00316 µM): 102%
viability, T/C (second compound 0.01 µM, first compound 0.01 µM): 90%
viability, T/C [33]: 94.8%
viability, T/C [34]: 105%
viability, T/C (second compound 0.0316 µM, first compound 0.000316 µM): 85.2%
viability, T/C (second compound 0.0316 µM, first compound 0.001 µM): 109%
viability, T/C (second compound 0.0316 µM, first compound 0.00316 µM): 92.2%
viability, T/C (second compound 0.0316 µM, first compound 0.01 µM): 97.8%
viability, T/C [5]: 98.4%
viability, T/C [6]: 101%
viability, T/C (second compound 0.1 µM, first compound 0.000316 µM): 80.7%
viability, T/C (second compound 0.1 µM, first compound 0.001 µM): 84.2%
viability, T/C (second compound 0.1 µM, first compound 0.00316 µM): 87%
viability, T/C (second compound 0.1 µM, first compound 0.01 µM): 93%
viability, T/C [11]: 96.8%
viability, T/C [12]: 80.3%
viability, T/C (second compound 0.316 µM, first compound 0.000316 µM): 65.8%
viability, T/C (second compound 0.316 µM, first compound 0.001 µM): 78.9%
viability, T/C (second compound 0.316 µM, first compound 0.00316 µM): 70.8%
viability, T/C (second compound 0.316 µM, first compound 0.01 µM): 68%
viability, T/C [17]: 70.7%
viability, T/C [18]: 72.4%
viability, T/C (second compound 1 µM, first compound 0.000316 µM): 65.5%
viability, T/C (second compound 1 µM, first compound 0.001 µM): 60%
viability, T/C (second compound 1 µM, first compound 0.00316 µM): 54.4%
viability, T/C (second compound 1 µM, first compound 0.01 µM): 65.7%
viability, T/C [23]: 62.7%
viability, T/C [24]: 63.6%

C[C@@H](NC(=O)c1ncnc(N)c1Cl)c1ncc(C(=O)Nc2cc(C(F)(F)F)c(Cl)cn2)s1 + CC(Nc1ccc2c(c1)OCCn1cc(N3C(=O)OCC3C(F)F)nc1-2)C(N)=O
IC50 [29]: > 10 µM
IC50 [30]: > 10 µM
IC50 [1]: > 10 µM
IC50 [2]: > 10 µM
IC50 [3]: > 10 µM
IC50 [4]: > 10 µM
viability, T/C [31]: 98.4%
viability, T/C [32]: 92.4%
viability, T/C [35]: 103%
viability, T/C [36]: 109%
viability, T/C [37]: 107%
viability, T/C [38]: 67.5%
viability, T/C [33]: 108%
viability, T/C [34]: 90.9%
viability, T/C [39]: 91.4%
viability, T/C [40]: 104%
viability, T/C [41]: 110%
viability, T/C [42]: 64.1%
viability, T/C [5]: 92.1%
viability, T/C [6]: 93.1%
viability, T/C [7]: 102%
viability, T/C [8]: 111%
viability, T/C [9]: 103%
viability, T/C [10]: 71.9%
viability, T/C [11]: 82.2%
viability, T/C [12]: 93.8%
viability, T/C [13]: 94.9%
viability, T/C [14]: 92.3%
viability, T/C [15]: 88.5%
viability, T/C [16]: 71.6%
viability, T/C [17]: 74.4%
viability, T/C [18]: 75.9%
viability, T/C [19]: 82.9%
viability, T/C [20]: 84.6%
viability, T/C [21]: 88.1%
viability, T/C [22]: 58.1%
viability, T/C [23]: 63%
viability, T/C [24]: 62.2%
viability, T/C [25]: 62.9%
viability, T/C [26]: 65.2%
viability, T/C [27]: 74.5%
viability, T/C [28]: 53.6%

C=CC(=O)N1CCN(c2nc(=O)n(-c3c(C)ccnc3C(C)C)c3nc(-c4c(O)cccc4F)c(F)cc23)C(C)C1 (stereo not given) + CC(Nc1ccc2c(c1)OCCn1cc(N3C(=O)OCC3C(F)F)nc1-2)C(N)=O
IC50 [29]: > 10 µM
IC50 [30]: > 10 µM
IC50 [1]: > 10 µM
IC50 [2]: > 10 µM
IC50 [3]: > 10 µM
IC50 [4]: > 10 µM
viability, T/C [31]: 100%
viability, T/C [32]: 81.7%
viability, T/C [35]: 98.7%
viability, T/C [36]: 94.5%
viability, T/C [37]: 106%
viability, T/C [38]: 113%
viability, T/C [33]: 101%
viability, T/C [34]: 91.8%
viability, T/C [39]: 93.1%
viability, T/C [40]: 95.3%
viability, T/C [41]: 103%
viability, T/C [42]: 91%
viability, T/C [5]: 95.7%
viability, T/C [6]: 112%
viability, T/C [7]: 86.9%
viability, T/C [8]: 111%
viability, T/C [9]: 115%
viability, T/C [10]: 92.2%
viability, T/C [11]: 77.9%
viability, T/C [12]: 94.3%
viability, T/C [13]: 95.2%
viability, T/C [14]: 124%
viability, T/C [15]: 88.5%
viability, T/C [16]: 89.7%
viability, T/C [17]: 68.2%
viability, T/C [18]: 75.9%
viability, T/C [19]: 81.5%
viability, T/C [20]: 68.1%
viability, T/C [21]: 87.7%
viability, T/C [22]: 70.6%
viability, T/C [23]: 63.9%
viability, T/C [24]: 63.2%
viability, T/C [25]: 65.1%
viability, T/C [26]: 74%
viability, T/C [27]: 68.3%
viability, T/C [28]: 55.6%
